# Columns and labels:
# Assay in all cases: Post-emergence efficacy, Method A
# Format in all cases: in vivo
# [1] = tested on: Chenopodium album (CHEAL); conditions: Application rate 500 g/Ha, evaluated after 13 days; for Control of weed species after post-emergence application, CHEAL: 100=total damage to plant, 0=no damage; for Control of weed species CHEAL after post-emergence application (100=total damage to plant; 0=no damage to plant): Method A
# Experimental: (§1) Seeds of a variety of test species were sown in standard soil in pots. After cultivation for 14 days (post-emergence) under controlled conditions in a glasshouse (at 24/16° C., day/night; 14 hours light; 65% humidity), the plants were sprayed with an aqueous spray solution derived from the dissolution of the technical active ingredient formula (I) in a small amount of acetone and a special solvent and emulsifier mixture referred to as IF50 (11.12% Emulsogen EL360 TM+44.44% N-methylpyrrolidone+44.44% Dowanol DPM glycol ether), to create a 50 g/l solution which was then diluted to required concentration using 0.25% or 1% Empicol ESC70 (Sodium lauryl ether sulphate)+1% ammonium sulphate as diluent.
# (§2) The test plants were then grown in a glasshouse under controlled conditions (at 24/16° C., day/night; 14 hours light; 65% humidity) and watered twice daily. After 13 days the test was evaluated (100=total damage to plant; 0=no damage to plant).
# (§3) Ipomoea hederacea (IPOHE), Euphorbia heterophylla (EPHHL), Chenopodium album (CHEAL), Amaranthus palmeri (AMAPA), Lolium perenne (LOLPE), Digitaria sanguinalis (DIGSA), Eleusine indica (ELEIN), Echinochloa crus-galli (ECHCG), Setaria faberi (SETFA)
# [2] = tested on: Amaranthus palmeri (AMAPA); conditions: Application rate 500 g/Ha, evaluated after 13 days; for Control of weed species after post-emergence application, AMAPA: 100=total damage to plant, 0=no damage; for Control of weed species AMAPA after post-emergence application (100=total damage to plant; 0=no damage to plant): Method A
# Experimental: as §1, §2, §3
# [3] = tested on: Echinochloa crus-galli (ECHCG); conditions: Application rate 500 g/Ha, evaluated after 13 days; for Control of weed species after post-emergence application, ECHCG: 100=total damage to plant, 0=no damage; for Control of weed species ECHCG after post-emergence application (100=total damage to plant; 0=no damage to plant): Method A
# Experimental: as §1, §2, §3
# Eleusine indica (ELEIN) = conditions: Application rate 500 g/Ha, evaluated after 13 days; for Control of weed species after post-emergence application, ELEIN: 100=total damage to plant, 0=no damage; for Control of weed species ELEIN after post-emergence application (100=total damage to plant; 0=no damage to plant): Method A
# Experimental: as §1, §2, §3
# [4] = tested on: Euphorbia heterophylla (EPHHL); conditions: Application rate 500 g/Ha, evaluated after 13 days; for Control of weed species after post-emergence application, EPHHL: 100=total damage to plant, 0=no damage; for Control of weed species EPHHL after post-emergence application (100=total damage to plant; 0=no damage to plant): Method A
# Experimental: as §1, §2, §3
# Setaria faberi (SETFA) = conditions: Application rate 500 g/Ha, evaluated after 13 days; for Control of weed species after post-emergence application, SETFA: 100=total damage to plant, 0=no damage; for Control of weed species SETFA after post-emergence application (100=total damage to plant; 0=no damage to plant): Method A
# Experimental: as §1, §2, §3
# [5] = tested on: Digitaria sanguinalis (DIGSA); conditions: Application rate 500 g/Ha, evaluated after 13 days; for Control of weed species after post-emergence application, DIGSA: 100=total damage to plant, 0=no damage; for Control of weed species DIGSA after post-emergence application (100=total damage to plant; 0=no damage to plant): Method A
# Experimental: as §1, §2, §3
SMILES,"Control of weed species after post-emergence application, CHEAL [1]","Control of weed species after post-emergence application, AMAPA [2]","Control of weed species after post-emergence application, ECHCG [3]","Control of weed species after post-emergence application, ELEIN (Eleusine indica (ELEIN))","Control of weed species after post-emergence application, EPHHL [4]","Control of weed species after post-emergence application, SETFA (Setaria faberi (SETFA))","Control of weed species after post-emergence application, DIGSA [5]",Control of weed species CHEAL after post-emergence application (100=total damage to plant; 0=no damage to plant) [1],Control of weed species AMAPA after post-emergence application (100=total damage to plant; 0=no damage to plant) [2],Control of weed species ECHCG after post-emergence application (100=total damage to plant; 0=no damage to plant) [3],Control of weed species ELEIN after post-emergence application (100=total damage to plant; 0=no damage to plant) (Eleusine indica (ELEIN)),Control of weed species EPHHL after post-emergence application (100=total damage to plant; 0=no damage to plant) [4],Control of weed species SETFA after post-emergence application (100=total damage to plant; 0=no damage to plant) (Setaria faberi (SETFA)),Control of weed species DIGSA after post-emergence application (100=total damage to plant; 0=no damage to plant) [5]
Cc1c[n+](CCC(=O)O)ncc1-c1ncccn1.O=C([O-])C(F)(F)F [Compound A153],60,90,40,20,40,20,20,–,–,–,–,–,–,–
O=C(O)CC[n+]1ccc(-c2cc(C(F)(F)F)ncn2)cn1.O=C([O-])C(F)(F)F [Compound A119],–,–,–,–,–,–,–,100,100,30,30,70,40,40
CC(C(=O)OC(C)(C)C)[n+]1ccc(-c2ncccn2)cn1.O=C([O-])C(F)(F)F (centres unmarked) [Compound A193],60,70,10,30,60,10,30,–,–,–,–,–,–,–
O=C([O-])C(F)(F)F.O=P(O)(O)CC[n+]1ccc(-c2ncccn2)cn1 [Compound A198],100,100,80,80,100,90,80,–,–,–,–,–,–,–
Nc1cc(-c2cc[n+](CCC(=O)O)nc2)nc(N)n1.O=C([O-])C(F)(F)F [Compound A188],50,90,50,20,30,30,40,–,–,–,–,–,–,–
Nc1cc(-c2cc[n+](CCC(=O)O)nc2)ncn1.O=C([O-])C(F)(F)F [Compound A163],60,100,40,90,50,–,50,–,–,–,–,–,–,–
COC(=O)CC[n+]1ccc(-c2ccncc2)cn1.O=C([O-])C(F)(F)F [Compound A203],90,100,50,60,50,60,70,–,–,–,–,–,–,–
O=C(O)CC[n+]1ccc(-c2ccc(C(F)(F)F)nn2)cn1.O=C([O-])C(F)(F)F [Compound A126],–,–,–,–,–,–,–,80,100,80,90,100,100,80
O=C(O)CC[n+]1ccc(-c2ccncc2F)cn1.O=C([O-])C(F)(F)F [Compound A157],100,100,80,90,80,80,70,–,–,–,–,–,–,–
